Counter-ions that a name gives are not always drawn.
What was measured:
Normal Conscious Rat = experiment: Aquaretic Effects in Normal Conscious Rat (urine volume); format: in vivo, rat (Sprague-Dawley, male)
Description: Aquaretic Effects in Normal Conscious Rat
Studies were performed with Sprague-Dawley male SPF rats (body weight: 240 to 320 g; 8-week-old). In this experiment, each group consisted of not less than 4 animals and rats were fasted over 16 to 20 hours. The animals were acclimatized in metabolic cages for one hour, then each compound to be tested was dissolved in 100% N,N-dimethylformamide or suspended in 5% gum arabic solution and administered to these animals intravenously (iv.) in a dose of 3 mg/kg or orally (p.o.) in a dose of 30 mg/kg. Immediately after the test compound or vehicle were orally administered, saline (25 ml/kg) was given orally. Spontaneous voided urines were collected for 4 hours after the administration of the compound and the amount of the urine were determined. In this case, the control group consisted of animals to which only 5% gum arabic was orally administered.
In addition, known compounds of Comparative Examples 2 and Comparative Examples 3 and 4 represented by the following formulas were used as control compounds.

Vasopressin V1 Receptor = Vasopressin V1 Receptor (Rattus norvegicus, UniProt P30560); experiment: biochemical; format: binding, rat (Sprague-Dawley, female; liver crude membrane); conditions: 1 h; 10^-7 M; inhibition rate at this concentration; read-out: Binding Rate of Vasopressin V1 Receptor
Description: The livers excised from Sprague-Dawley female rats were cut into small pieces, and were homogenized in 50 mM Tris-HCl, pH 7.4 hereunder referred to as "buffer"). The homogenate was centrifuged at 50000×g, at 4° C. for 20 minutes. The pellet was added the buffer in an amount of 10 times the volume of the pellet, the mixture was recentrifuged by the same method as described above to wash the residue. The buffer was further added to the resulting pellet so that the protein content thereof was adjusted to 10 mg/ml to thus give a crude membrane fraction of rat liver. The crude membrane fraction of rat liver was used in the following test. More specifically, 5000 μg of the crude liver membrane was incubated with [^3 H]-Arg-vasopressin V-1 antagonist ([^3 H) vasopressin V1 antagonist: 2 nM) and various concentration (3×10^-12 to 10^-6) of the test compounds in a 1000 μL of buffer containing 10 mM magnesium chloride, 10 mM potassium chloride and 0.1% bovine serum albumin at 25° C. for 60 minutes. Thereafter the incubation mixture was rapidly filtered by vacuum using a cell harvester. The filters were washed with buffer to remove free ligands and excess buffer, and to thus trap labeled ligand linked with the receptor on the filter paper. The filter paper was sufficiently dried and mixed with a liquid scintillator, and the amount of the [^3 H] vasopressin V1 antagonist bonded to the membrane was determined using a liquid scintillation counter. The inhibition rate at each concentration was calculated according to the following equation:
Inhibition Rate (%)=100-[(B-N)/(B0 -N)]×100
Wherein B represents the amount of the [^3 H] vasopressin V1 antagonist bonded to the membrane in the presence of known amounts of the compound to be tested and the [^3 CH] vasopressin V1 antagonist;
B0 represents the amount of the [^3 H] vasopressin V1 antagonist bonded to the membrane in the absence of the compound to be tested;
N represents the amount of the [^3 H] vasopressin V1 antagonist bonded to the membrane in the presence of an excess of vasopressin (10^-6 M).
The IC50 value (the concentration required to cause 50% inhibition of the specific binding of [^3 H]-V1 antagonist) was determined. […] On the other hand, for the compounds which were investigated only one concentration (10^-7 M), the inhibition rate at that concentration was defined to be the binding rate.

Vasopressin V2 Receptor = Vasopressin V2 Receptor (Rattus norvegicus, UniProt Q00788); experiment: biochemical; format: binding, rat (Sprague-Dawley, female; kidney crude membrane); conditions: 1 h; 10^-7 M; inhibition rate at this concentration; read-out: Binding Rate of Vasopressin V2 Receptor
Chain of Vasopressin V2 Receptor (Q00788 whole entry): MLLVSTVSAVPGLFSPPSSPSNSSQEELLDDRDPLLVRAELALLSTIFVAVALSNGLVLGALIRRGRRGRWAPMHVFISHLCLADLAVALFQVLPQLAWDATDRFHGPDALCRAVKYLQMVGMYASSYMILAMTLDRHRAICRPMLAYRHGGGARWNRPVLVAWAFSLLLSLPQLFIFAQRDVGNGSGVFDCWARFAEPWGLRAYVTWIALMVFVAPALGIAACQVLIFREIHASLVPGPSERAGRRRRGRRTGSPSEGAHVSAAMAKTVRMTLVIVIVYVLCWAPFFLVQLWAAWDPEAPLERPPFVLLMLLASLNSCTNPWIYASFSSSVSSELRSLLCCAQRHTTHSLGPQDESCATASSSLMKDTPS

Chain of Vasopressin V1 Receptor (P30560 whole entry): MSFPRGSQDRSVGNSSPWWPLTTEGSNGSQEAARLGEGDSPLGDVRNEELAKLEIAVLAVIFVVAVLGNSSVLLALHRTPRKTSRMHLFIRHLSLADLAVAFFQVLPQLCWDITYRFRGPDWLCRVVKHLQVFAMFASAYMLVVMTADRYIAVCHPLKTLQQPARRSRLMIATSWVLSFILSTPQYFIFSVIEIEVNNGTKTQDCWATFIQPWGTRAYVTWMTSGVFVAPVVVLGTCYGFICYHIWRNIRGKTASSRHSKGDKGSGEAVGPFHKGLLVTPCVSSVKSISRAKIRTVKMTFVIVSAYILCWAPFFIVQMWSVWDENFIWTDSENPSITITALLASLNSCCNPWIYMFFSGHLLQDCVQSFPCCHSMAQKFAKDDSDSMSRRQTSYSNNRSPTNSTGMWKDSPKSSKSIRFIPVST

Structure (SMILES) | Amount of Urine Volume (Normal Conscious Rat; 3 mg/kg, i.v.) | Amount of Urine Volume (Normal Conscious Rat; 30 mg/kg, p.o.) | inhibition at 0.1 µM (Vasopressin V1 Receptor) | inhibition at 0.1 µM (Vasopressin V2 Receptor)
Cc1ccccc1C(=O)Nc1ccc(C(=O)N2Cc3cccn3Cc3ccccc32)cc1 [Comp. Ex. 4, reference compound] | 34.8 ml/kg/0-4 hr. | 22.6 ml/kg/0-4 hr. |  | 
O=C(Nc1ccc(C(=O)N2C[C@@H]3CCCN3c3ccccc32)cc1)c1ccccc1-c1ccccc1 [Example 1, (3aS)-5-[4-[(2-Phenylbenzoyl)Amino]Benzoyl]-1,2,3,3a,4,5-Hexahydro-Pyrrolo[1,2-a]Quinoxaline] | 33.1 ml/kg/0-4 hr. | 40.3 ml/kg/0-4 hr. |  | 
O=C(Nc1ccc(C(=O)N2C[C@@H]3C[C@@H](O)CN3c3ccccc32)cc1)c1ccccc1-c1ccccc1 [Example 3] | 29.5 ml/kg/0-4 hr. | 54.0 ml/kg/0-4 hr. |  | 
O=C(Nc1ccc(C(=O)N2C[C@@H]3C[C@H](O)CN3c3ccccc32)cc1)c1ccccc1-c1ccccc1 [Example 7, (2S, 3aS)-2-Hydroxy-5-[4-[(2-Phenylbenzoyl) Amino]Benzoyl]-1,2,3,3a,4,5-Hexahydro-Pyrrolo[1,2-a]Quinoxaline] | 29.3 ml/kg/0-4 hr. | 33.8 ml/kg/0-4 hr. |  | 
Cc1ccc(-c2ccccc2C(=O)Nc2ccc(C(=O)N3C[C@@H]4C[C@H](O)CN4c4ccccc43)cc2)cc1 [Example 8, (2S, 3aS)-2-Hydroxy-5-[4-[[2-(4-Tolyl) Benzoyl]Amino]Benzoyl]-1,2,3,3a,4,5-Hexahydro-Pyrrolo[1,2-a]Quinoxahine] |  |  | 16.3% | 100%
CN(C)[C@H]1C[C@H]2CN(C(=O)c3ccc(NC(=O)c4ccccc4-c4ccccc4)cc3)c3ccccc3N2C1.Cl [Example 10, (2S, 3aS)-2-(N,N-Dimethylamino)-5-[4-[(2-Phenylbenzoyl) Amino]Benzoyl]-1,2,3,3a,4,5-Hexahydro-Pyrrolo[1,2-a]Quinoxaline Hydrochloride] | 22.2 ml/kg/0-4 hr. | 39.6 ml/kg/0-4 hr. |  | 
O=C(Nc1ccc(C(=O)N2C[C@H]3CCCN3c3ccccc32)cc1)c1ccccc1-c1ccccc1 [Example 11, (3aR)-5-[4-[(2-Phenylbenzoyl) Amino]Benzoyl]-1,2,3,3a,4,5-Hexahydro-Pyrrolo[1,2-a]Quinoxaline] | 56.5 ml/kg/0-4 hr. | 69.6 ml/kg/0-4 hr. | 34% | 100%
Cc1ccc(-c2ccccc2C(=O)Nc2ccc(C(=O)N3C[C@H]4CCCN4c4ccccc43)cc2)cc1 [Example 12, (3aR)-5-[4-[[2-(4-Tolyl) Benzoyl]Amino]Benzoyl]-1,2,3,3a,4,5-Hexahydro-Pyrrolo[1,2-a]Quinoxaline] | 66.0 ml/kg/0-4 hr. | 12.8 ml/kg/0-4 hr. |  | 
Cc1ccc(-c2ccccc2C(=O)Nc2ccc(C(=O)N3C[C@H]4C[C@@H](O)CN4c4ccccc43)cc2)cc1 [Example 14, (2R,3aR)-2-Hydroxy-5-[4-[[2-(4-Tolyl) Benzoyl]Amino]Benzoyl]-1,2,3,3a-4,5-Hexahydro-Pyrrolo[1,2-a]Quinoxaline] | 60.6 ml/kg/0-4 hr. | 90.3 ml/kg/0-4 hr. |  | 
CC(=O)O[C@H]1C[C@@H]2CN(C(=O)c3ccc(NC(=O)c4ccccc4-c4ccc(C)cc4)cc3)c3ccccc3N2C1 [Example 16, (2S, 3aR)-2-Acetoxy-5-[4-[[2-(4-Tolyl) Benzoyl]Amino]Benzoyl]-1,2,3,3a,4,5-Hexahydro-Pyrrolo[1,2-a]Quinoxaline] | 71.0 ml/kg/0-4 hr. | 72.0 ml/kg/0-4 hr. | 68.2% | 100%
O=C(Nc1ccc(C(=O)N2C[C@H]3C[C@H](O)CN3c3ccccc32)cc1)c1ccccc1-c1ccccc1 [Example 17, (2S, 3aR)-2-Hydroxy-5-[4-[(2-Phenylbenzoyl) Amino]Benzoyl]-1,2,3,3a,4,5-Hexahydro-Pyrrolo[1,2-a]Quinoxaline] | 58.6 ml/kg/0-4 hr. | 26.3 ml/kg/0-4 hr. | 52.4% | 100%
CN(C)[C@H]1C[C@@H]2CN(C(=O)c3ccc(NC(=O)c4ccccc4-c4ccccc4)cc3)c3ccccc3N2C1 [Example 21, (2S, 3aR)-2-(N,N-Dimethylamino)-5-[4-[(2-Phenylbenzoyl) Amino]Benzoyl]-1,2,3,3a,4,5-Hexahydro-Pyrrolo[1,2-a]Quinoxaline] | 47.6 ml/kg/0-4 hr. | 81.4 ml/kg/0-4 hr. | 19.5% | 100%
Cc1ccc(-c2ccccc2C(=O)Nc2ccc(C(=O)N3C[C@H]4C[C@H](N(C)C)CN4c4ccccc43)cc2)cc1 [Example 22, (2S, 3aR)-2-(N,N-Dimethylamino)-5-[4-[[2-(4-Tolyl) Benzoy]Amino]Benzoyl]-1,2,3,3a,4,5-Hexahydro-Pyrrolo[1,2-a]Quinoxaline Hydrochloride] | 58.8 ml/kg/0-4 hr. | 79.6 ml/kg/0-4 hr. | 33.5% | 100%
O=C(Nc1ccc(C(=O)N2C[C@H]3C[C@H](F)CN3c3ccccc32)cc1)c1ccccc1-c1ccccc1 [Example 23, (2S, 3aR)-2-Fluoro-5-[4-[(2-Phenylbenzoyl) Amino]Benzoyl]-1,2,3,3a,4,5-Hexahydro-Pyrrolo[1,2-a]Quinoxaline] | 27.2 ml/kg/0-4 hr. | 35.6 ml/kg/0-4 hr. |  | 
Cc1ccc(-c2ccccc2C(=O)Nc2ccc(C(=O)N3C[C@H]4CC(=O)CN4c4ccccc43)cc2)cc1 [Example 24] | 49.4 ml/kg/0-4 hr. | 46.1 ml/kg/0-4 hr. | 16.5% | 100%
Cc1ccc(-c2ccccc2C(=O)Nc2ccc(C(=O)N3C[C@@H]4CCCN4C(=O)c4ccccc43)cc2)cc1 [Example 26, (11aS)-10-[4-[[2-(4-Tolyl) Benzoyl]Amino]Benzoyl]-1,2,3,10,11,11a-Hexahydro-5H-Pyrrolo[2,1-c][1,4]Benzodiazepin-5-One] | 72.3 ml/kg/0-4 hr. | 88.3 ml/kg/0-4 hr. | 4% | 100%
Cl.O=C(Nc1ccc(C(=O)N2C[C@H]3C[C@@H](O)CN3Cc3ccccc32)cc1)c1ccccc1-c1ccccc1 [Example 45, (2R,11aR)-2-Hydroxy-10-[4-[(2-Phenylbenzoyl) Amino]Benzoyl]-1,2,3,10,11,11a-Hexahydro-5H-Pyrrolo[2,1-c][1,4]Benzodiazepine Hydrochloride] | 51.4 ml/kg/0-4 hr. | 93.9 ml/kg/0-4 hr. |  | 
CC(=O)O[C@H]1C[C@@H]2CN(C(=O)c3ccc(NC(=O)c4ccccc4-c4ccccc4)cc3)c3ccccc3CN2C1 [Example 46, (2S, 11aR)-2-Acetoxy-10-[4-[(2-Phenylbenzoyl) Amino]Benzoyl]-1,2,3,10,11,11a-Hexahydro-5H-Pyrrolo[2,1-c][1,4]Benzodiazepine] | 82.5 ml/kg/0-4 hr. | 118.8 ml/kg/0-4 hr. |  | 
O=C(Nc1ccc(C(=O)N2CC[C@H]3CCCN3c3ccccc32)cc1)c1ccccc1-c1ccccc1 [Example 51, (3aR)-6-[4-[(2-Phenylbenzoyl) Amino]Benzoyl]-2,3,3a,4,5,6-Hexahydro-1H-Pyrrolo[1,2-a][1,5]Benzodiazepine] | 63.8 ml/kg/0-4 hr. | 21.7 ml/kg/0-4 hr. |  | 
CC(=O)O[C@H]1C[C@@H]2CCN(C(=O)c3ccc(NC(=O)c4ccccc4-c4ccccc4)cc3)c3ccccc3N2C1 [Example 53, (2S, 3aS)-2-Acetoxy-6-[4-[(2-Phenylbenzoyl) Amino]Benzo]-2,3,3a,4,5,6-Hexahydro-1H-Pyrrolo[1,2-a][1,5]Benzodiazepine] |  |  | 63.8% | 97.9%
CN(C)C1CC2CCN(C(=O)c3ccc(NC(=O)c4ccccc4-c4ccccc4)cc3)c3ccccc3N2C1.Cl [Example 56, (2S, 3aR)-2-(N,N-dimethylamino)-6-[4-[(2-phenylbenzoyl)amino]benzoyl]-2,3,3a,4,5,6-hexahydro-1H-Pyrrolo[1,2-a][1,5]benzodiazepinehydrochloride] | 87.4 ml/kg/0-4 hr. | 116.4 ml/kg/0-4 hr. |  | 
